Consider eight molecules from ChEMBL document CHEMBL1123223, “New effective gonadotropin releasing hormone antagonists with minimal potency for histamine release in vitro” (J Med Chem, 1986).

The species entered for assay [1] is Rattus norvegicus. The assay is described as follows: Compound was evaluated for time course of action on LH secretion in the castrated male rat at a time interval of 1 hr at 25 microg. Type of assay: functional.
Assay [2] is filed under the species Rattus norvegicus. The assay is described as follows: Compound was evaluated for time course of action on LH secretion in the castrated male rat at a time interval of 19 hr at 25 microg. Format: functional.
The species entered for assay [3] is Rattus norvegicus. Briefly: Compound was evaluated for time course of action on LH secretion in the castrated male rat at a time interval of 43 hr at 25 microg. Type of assay: functional.
The species entered for assay [4] is Rattus norvegicus. The assay is described as follows: Compound was evaluated for time course of action on LH secretion in the castrated male rat at a time interval of 49 h at 125 microg. Type of assay: functional.
The species named for assay [5] is Rattus norvegicus. Briefly: Compound was evaluated for time course of action on LH secretion in the castrated male rat at a time interval of 49 hr at 25 microg. Type of assay: functional.
For assay [6], the species on record is Rattus norvegicus. Briefly: Compound was evaluated for time course of action on LH secretion in the castrated male rat at a time interval of 67 hr at 25 microg. Type of assay: functional.
Assay [7] is filed under the species Rattus norvegicus. Briefly: Compound was evaluated for time course of action on LH secretion in the castrated male rat at a time interval of 73 hr at 25 microg. Type of assay: functional.
The species entered for assay [8] is Rattus norvegicus. Briefly: Compound was evaluated for time course of action on LH secretion in the castrated male rat at a time interval of 0 hr at 25 microg. Type of assay: functional.
The species entered for assay [9] is Rattus norvegicus. The assay is described as follows: Compound was evaluated for time course of action on LH secretion in the castrated male rat at a time interval of 1 hr at 125 microg. Type of assay: functional.
The species named for assay [10] is Rattus norvegicus. Briefly: Compound was evaluated for time course of action on LH secretion in the castrated male rat at a time interval of 43 hr at 125 microg. Type of assay: functional.
The species entered for assay [11] is Rattus norvegicus. The assay is described as follows: Compound was evaluated for time course of action on LH secretion in the castrated male rat at a time interval of 67 hr at 125 microg. Format: functional.
The species entered for assay [12] is Rattus norvegicus. Briefly: Compound was evaluated for time course of action on LH secretion in the castrated male rat at a time interval of 0 hr at 125 microg. Format: functional.
Assay [13] is filed under the species Rattus norvegicus. Briefly: Compound was evaluated for time course of action on LH secretion in the castrated male rat at a time interval of 19 hr at 125 microg. Format: functional.
Assay [14] is filed under the species Rattus norvegicus. The assay is described as follows: Compound was evaluated for time course of action on LH secretion in the castrated male rat at a time interval of 73 hr at 125 microg. Format: functional.
The species named for assay [15] is Rattus norvegicus. Briefly: GnRH antagonistic dose of compound for 10 rats ovulation out of total 10 using anti-ovulatory assay. Format: functional.
The species entered for assay [16] is Rattus norvegicus. The assay is described as follows: Compound was tested in vitro for its ability to inhibit histamine release from rat mast cells. Type of assay: functional. Particulars: read-out: ED50 (the source's name).
The species named for assay [17] is Rattus norvegicus. Briefly: Dissociation constant was determined in rat pituitary cells. Type of assay: cell-based. Particulars: pituitary gland cell.
Assay [18] addresses T1, Gonadotropin-releasing hormone receptor (Rattus norvegicus) (UniProt P30969).
T1 sequence (whole entry): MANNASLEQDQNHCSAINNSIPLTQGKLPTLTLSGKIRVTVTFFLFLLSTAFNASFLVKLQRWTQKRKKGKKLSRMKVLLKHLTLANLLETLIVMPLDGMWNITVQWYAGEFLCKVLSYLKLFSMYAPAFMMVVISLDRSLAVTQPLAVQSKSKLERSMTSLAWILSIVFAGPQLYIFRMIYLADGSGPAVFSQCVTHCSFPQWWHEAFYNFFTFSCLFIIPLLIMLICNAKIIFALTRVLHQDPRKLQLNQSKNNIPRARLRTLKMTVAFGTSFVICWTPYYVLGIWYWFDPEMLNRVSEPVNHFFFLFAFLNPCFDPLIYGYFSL
Briefly: Inhibition of GnRH-mediated LH secretion by cultured pituitary cells. Format: functional, cell-based. To be noted: Pituitary gland cell.

Assay [19] is filed under the species Rattus norvegicus. The assay is described as follows: GnRH antagonistic dose of compound for 0 rats ovulation out of total 10 using anti-ovulatory assay in experiment 1. Type of assay: functional.
Assay [20] is filed under the species Rattus norvegicus. The assay is described as follows: GnRH antagonistic dose of compound for 8 rats ovulation out of total 16 using anti-ovulatory assay in experiment 1. Type of assay: functional.
Assay [21] is filed under the species Rattus norvegicus. The assay is described as follows: Compound was evaluated for time course of action on LH secretion in the castrated male rat at a time interval of 49 hr at 125 microg. Type of assay: functional.
The species entered for assay [22] is Rattus norvegicus. The assay is described as follows: GnRH antagonistic dose of compound for 0 rats ovulation out of total 10 using anti-ovulatory assay in experiment 2. Format: functional.
The species entered for assay [23] is Rattus norvegicus. Briefly: GnRH antagonistic dose of compound for 5 rats ovulation out of total 10 using anti-ovulatory assay in experiment 1. Type of assay: functional.
The species entered for assay [24] is Rattus norvegicus. Briefly: GnRH antagonistic dose of compound for 2 rats ovulation out of total 10 using anti-ovulatory assay in experiment 1. Type of assay: functional.
The species entered for assay [25] is Rattus norvegicus. Briefly: GnRH antagonistic dose of compound for 0 rats ovulation out of total 6 using anti-ovulatory assay in experiment 2. Type of assay: functional.
Assay [26] is filed under the species Rattus norvegicus. Briefly: GnRH antagonistic dose of compound for 9 rats ovulation out of total 10 using anti-ovulatory assay. Format: functional.
The species named for assay [27] is Rattus norvegicus. Briefly: GnRH antagonistic dose of compound for 1 rats ovulation out of total 10 using anti-ovulatory assay in experiment 1. Format: functional.
Assay [28] is filed under the species Rattus norvegicus. Briefly: GnRH antagonistic dose of compound for 11 rats ovulation out of total 15 using anti-ovulatory assay. Format: functional.

Converted amounts (≈) assume the structure as drawn.

As to `CC(=O)N1CCC[C@@H]1C(=O)N[C@H](Cc1ccc(F)cc1)C(=O)N[C@H](Cc1c[nH]c2ccccc12)C(=O)N[C@@H](CO)C(=O)N[C@@H](CCCN=C(N)N)C(=O)N[C@H](Cc1ccc2ccccc2c1)C(=O)N[C@@H](CC(C)C)C(=O)N[C@@H](CCCN=C(N)N)C(=O)N1CCC[C@H]1C(=O)NCC(N)=O`, the LH level in the assay filed under Rattus norvegicus [1] was found to be 5.68 ng/mL; in the assay filed under Rattus norvegicus [2] it was 2.78 ng/mL; in the assay filed under Rattus norvegicus [3], 4.38 ng/mL; in the assay listed under Rattus norvegicus [4], 2.5 ng/mL; in the assay listed under Rattus norvegicus [5] it was 5.46 ng/mL; in the assay listed under Rattus norvegicus [6], 8.23 ng/mL. The LH level amounted to 9.15 ng/mL in the assay listed under Rattus norvegicus [7]; 10.25 ng/mL in the assay filed under Rattus norvegicus [8]; 6.17 ng/mL in the assay listed under Rattus norvegicus [9]; 2.63 ng/mL in the assay filed under Rattus norvegicus [10]; 2.74 ng/mL in the assay filed under Rattus norvegicus [11]; 12.47 ng/mL in the assay listed under Rattus norvegicus [12]. Besides, the LH level turned out to be 3 ng/mL in the assay listed under Rattus norvegicus [13] and 4.58 ng/mL in the assay filed under Rattus norvegicus [14].
In the assay filed under Rattus norvegicus [15], `COc1ccc(C(=O)CC[C@@H](NC(=O)[C@H](Cc2ccc(O)cc2)NC(=O)[C@H](CO)NC(=O)[C@@H](Cc2cccnc2)NC(=O)[C@@H](Cc2ccc(Cl)cc2)NC(=O)[C@H]2CCCN2C(C)=O)C(=O)N(C)[C@@H](CC(C)C)C(=O)N[C@@H](CCCN=C(N)N)C(=O)N2CCC[C@H]2C(=O)N[C@H](C)C(=O)O)cc1` returned an ED100 of 5 µg/kg. For the same molecule, the EC50 in the assay filed under Rattus norvegicus [16] amounted to 30.3 µg/mL (≈ 21.5 µM).
`COc1ccc(C(=O)CC[C@@H](NC(=O)[C@H](CCCN=C(N)N)NC(=O)[C@H](CO)NC(=O)[C@@H](Cc2cccnc2)NC(=O)[C@@H](Cc2ccc(Cl)cc2)NC(=O)[C@@H](Cc2ccc3ccccc3c2)NC(C)=O)C(=O)N[C@@H](CC(C)C)C(=O)N[C@@H](CCCN=C(N)N)C(=O)N2CCC[C@H]2C(=O)N[C@H](C)C(=O)O)cc1` yielded a Kd in the assay listed under Rattus norvegicus [17] of 670 pM. Also, in assay [18], the Relative potency came out at 1.01. Moreover, the ED100 in the assay listed under Rattus norvegicus [19] worked out at 1.5 µg/kg; in the assay filed under Rattus norvegicus [20], 0.5 µg/kg. Moreover, in the assay filed under Rattus norvegicus [16], the EC50 is 1.6 µg/mL (≈ 1.08 µM). Further, the LH level was 6.31 ng/mL in the assay listed under Rattus norvegicus [9]; 3.27 ng/mL in the assay filed under Rattus norvegicus [10]; 3.67 ng/mL in the assay filed under Rattus norvegicus [11]; 13.38 ng/mL in the assay listed under Rattus norvegicus [12]; 3.68 ng/mL in the assay listed under Rattus norvegicus [13]; 2.94 ng/mL in the assay listed under Rattus norvegicus [21]. This molecule also had an LH level in the assay listed under Rattus norvegicus [14] of 5.06 ng/mL.
In the assay filed under Rattus norvegicus [17], `CC(=O)N[C@H](Cc1ccc2ccccc2c1)C(=O)N[C@H](Cc1ccc(Cl)cc1)C(=O)N[C@H](Cc1cccnc1)C(=O)N[C@@H](CO)C(=O)N[C@@H](CCCN=C(N)N)C(=O)N[C@H](Cc1cccnc1)C(=O)N[C@@H](CC(C)C)C(=O)N[C@@H](CCCN=C(N)N)C(=O)N1CCC[C@H]1C(=O)N[C@H](C)C(=O)O` yielded a Kd of 240 pM. For the same molecule, in [18], the Relative potency was found to be 0.91. The ED100 in the assay listed under Rattus norvegicus [22] came to 1 µg/kg; in the assay filed under Rattus norvegicus [23], 0.5 µg/kg. For the same molecule, in the assay filed under Rattus norvegicus [16], the EC50 was determined as 2.9 µg/mL (≈ 2.05 µM).
`CC(=O)N[C@H](Cc1ccc2ccccc2c1)C(=O)N[C@H](Cc1ccc(Cl)cc1)C(=O)N[C@H](Cc1cccnc1)C(=O)N[C@@H](CO)C(=O)N[C@@H](CCCN=C(N)N)C(=O)N[C@H](Cc1c[nH]c2ccccc12)C(=O)N[C@@H](CC(C)C)C(=O)N[C@@H](CCCN=C(N)N)C(=O)N1CCC[C@H]1C(=O)N[C@H](C)C(=O)O`: binding in the assay listed under Rattus norvegicus [17] was put at a Kd of 960 pM. The same molecule showed a Relative potency in [18] of 0.44. The figures for the ED100 in the assay filed under Rattus norvegicus [24] and in the assay filed under Rattus norvegicus [25] were 0.5 µg/kg and 1 µg/kg, respectively. The EC50 in the assay filed under Rattus norvegicus [16] was determined as 2.1 µg/mL (≈ 1.44 µM).
As for `CC(=O)N[C@H](Cc1ccc2ccccc2c1)C(=O)N[C@H](Cc1ccc(Cl)cc1)C(=O)N[C@H](Cc1cccnc1)C(=O)N[C@@H](CO)C(=O)N[C@@H](CCCN=C(N)N)C(=O)N[C@H](CCC(=O)O)C(=O)N[C@@H](CC(C)C)C(=O)N[C@@H](CCCN=C(N)N)C(=O)N1CCC[C@H]1C(=O)N[C@H](C)C(=O)O`, in the assay listed under Rattus norvegicus [26], the ED100 worked out at 10 µg/kg. Also, the EC50 in the assay listed under Rattus norvegicus [16] is 17 µg/mL (≈ 12.2 µM).
`COc1ccc(C(=O)CC[C@@H](NC(=O)[C@H](CCCN=C(N)N)NC(=O)[C@H](CO)NC(=O)[C@@H](Cc2cccnc2)NC(=O)[C@@H](Cc2ccc(Cl)cc2)NC(=O)[C@@H](Cc2ccc3ccccc3c2)NC(C)=O)C(=O)N[C@@H](CC(C)C)C(=O)N[C@@H](CCCN=C(N)N)C(=O)N2CCC[C@H]2C(=O)NCC(=O)O)cc1` gave a Kd in the assay listed under Rattus norvegicus [17] of 600 pM. For the same molecule, the figures for the ED100 in the assay listed under Rattus norvegicus [22] and in the assay listed under Rattus norvegicus [27] were 2.5 µg/kg and 1 µg/kg, respectively. Moreover, in the assay listed under Rattus norvegicus [16], the EC50 amounted to 3.2 µg/mL (≈ 2.17 µM).
Molecule `CC(=O)N[C@H](Cc1ccc2ccccc2c1)C(=O)N[C@H](Cc1ccc(Cl)cc1)C(=O)N[C@H](Cc1cccnc1)C(=O)N[C@@H](CO)C(=O)N[C@@H](CCCN=C(N)N)C(=O)N[C@H](Cc1ccc(O)cc1)C(=O)N[C@@H](CC(C)C)C(=O)N[C@@H](CCCN=C(N)N)C(=O)N1CCC[C@H]1C(=O)N[C@H](C)C(N)=O` returned an ED100 in the assay filed under Rattus norvegicus [28] of 0.5 µg/kg. Besides, the EC50 in the assay filed under Rattus norvegicus [16] stood at 3.7 µg/mL (≈ 2.59 µM).
